In patent US11472843B2, “Malacidins and methods of use” (The Rockefeller University, priority 2017, dated 2022):

What was measured:
[1] = tested on: Candida albicans ATCC 1884; assay: MIC assay, C. albicans; format: cell-based
Description: (§1) MIC assays were performed in duplicate in 96-well microtiter plates on the basis of the protocol recommended by the Clinical and Laboratory Standards Institute (Cockerill, 2012, Clinical and Laboratory Standards Institute). All presented data are the average of at least three independent assays. Stock solutions of malacidin or daptomycin (2 mg ml^−1 in H2O) were added to the first well in a row and serially diluted (twofold per transfer) across the microtiter plate. CaCl2 was supplemented to media at a final concentration of 15 mM and fetal bovine serum (ATCC) was added to media (1:10) to test the effect of serum. Overnight cultures of bacteria were diluted 5,000-fold, and 50 μl was used as an inoculum in each well. MIC values were determined by visual inspection after 18 h incubation (30° C., static growth). For the enhanced calcium titration experiments, standard MIC assays were performed with methicillin-resistant Staphylococcus aureus (MRSA) PFGE strain type USA300 in media supplemented with CaCl2 at: 25.0, 18.8, 14.1, 7.03, 3.52, 2.50, 1.76, 0.880, 0.440, 0.250 and 0 mM. To assess the effects of monovalent and divalent cations on malacidin activity, standard MIC assays were performed with MRSA USA300 in media supplemented with 15 mM CaCl2, MgCl2, MnCl2, ZnCl2, SrCl2, NaCl and KCl. To evaluate the effects of pulmonary surfactants on activity against a community-acquired pneumonia-causing pathogen, standard MIC assays were performed with Streptococcus pneumoniae TCH8431 in media supplemented with both 15 mM CaCl1 and Survanta (beractant) at a final concentration of 5, 1, 0.5, 0.25 or 0% (volume/volume (v/v) percent).

[2] = tested on: MRSA USA300; assay: Selection for malacidin-resistant mutants; format: cell-based, Staphylococcus aureus; settings: 20 days of exposure to 0.5×MIC, 15 mM calcium
Description: To select for resistant mutants, a single MRSA USA300 colony from a freshly struck plate was inoculated into LB media and grown overnight at 37° C. The saturated overnight culture was diluted 100-fold, supplemented with a sub-lethal dose (0.5×MIC) of malacidin A, vancomycin, daptomycin or rifamycin and 15 mM calcium. Two-hundred-microlitre aliquots were then distributed into microtiter plate wells. The next day, 3 μl of culture from each well was used to inoculate 200 μl of calcium-supplemented media (15 mM calcium) with fresh antibiotic at 0.5× and 4×MIC. This process was repeated for 20 days. […] This was repeated over the course of the experiment to assess fold change in MIC at day 0 to day 20.

[3] = tested on: MRSA USA300; assay: Membrane leakage assay (SYTOX green); format: cell-based, Staphylococcus aureus; settings: 20 μg ml^−1
Description: (§2) The effects of malacidin on membrane integrity was assessed using SYTOX green. In brief, single colonies of MRSA USA300 were grown in LB media with and without 15 mM CaCl2 to an OD600 nm of 0.35. Nine hundred microlitres of cells were mixed with 100 μL of 17 μM SYTOX green dye (Thermo Fisher). The resulting mixture was incubated for 5 min at 22° C., and then distributed to a microtiter plate at 50 μl per well. An initial reading of fluorescence pre-antibiotic addition was measured at excitation and emission wavelengths of 488 nm and 523 nm, respectively. Fifty microlitres of antibiotics was added to respective wells at a final concentration of 20 μg ml^−1. Measurements were immediately collected for 10 min. To assess the effects of malacidin on membrane depolarization, similar assays were set up using the membrane potential probe, DiBAC4 (bis-(1,3-dibutylbarbituric acid)trimethine oxonol). Single colonies of MRSA USA300 were grown in LB media with and without 15 mM CaCl2 to an OD600 nm of 0.35. Nine hundred microlitres of cells were mixed with 100 μl of 20 μg ml DiBAC4dye (Thermo Fisher). The resulting mixture was incubated for 5 min at 22° C., and then distributed to a microtiter plate at 50 μl per well. An initial reading of fluorescence pre-antibiotic addition was measured at excitation and emission wavelengths of 492 nm and 515 nm, respectively. Fifty microlitres of antibiotics was added to respective wells at a final concentration of 20 μg ml^−1. Measurements were immediately collected for 10 min. Representative examples from three technical replicates are shown.

[4] = tested on: MRC5 cells; format: cell-based, human
Description: (§3) Cytotoxicity against human cell lines was tested using an ATP release assay, CelITiter-Glo (Promega), according to the manufacturer's instructions. HEK293 cells (293FT, Thermo Fisher Scientific, no. R700-07) and MRC5 cells (ATCC CCL-171) were grown in complete DMEM media supplemented with 10% FBS, and were inspected visually for authentication and tested for mycoplasma contamination using a MycoAlert detection kit (Lonza). Cells were grown to confluence, trypsinized, counted and plated in 384-well cell culture plates at an appropriate density (2,500 cells per well for HEK293 and 1000 cells per well for MRC5). The test compound was added 24 h later in the presence of calcium, and viability was determined after 4.5 h of incubation. Experiments were performed with biological replicates. Haemolytic activity was evaluated by a red blood cell disc diffusion assay. Twenty-microlitre stocks of malacidin A and Triton X-100 were infused on filter discs, dried completely and then overlaid on 5% sheep blood agar plates (Hardy Diagnostics). The plates were incubated for 24 h at 20° C., and then checked for lysis.

[5] = tested on: HEK293 cells; format: cell-based, human; settings: viability, in the presence of calcium, 4.5 h
Description: as §3

[6] = tested on: MRSA USA300; assay: Membrane depolarization assay (DiBAC4); format: cell-based, Staphylococcus aureus; settings: S. aureus cells pretreated with DiBAC4; 20 μg ml^−1
Description: as §2, with “Fifty microlitres of antibiotics was added to respective wells at a final concentration of 20 μg ml^−1. Measurements were immediately collected for 10 min. Representative examples from three technical replicates are shown.” left out

[7] = tested on: S. aureus NRS108; assay: MIC assay, S. aureus NRS108; format: cell-based, Staphylococcus aureus; settings: β-lactams
Description: as §1

[8] = tested on: S. aureus COL; assay: MIC assay, S. aureus COL; format: cell-based, Staphylococcus aureus; settings: β-lactams
Description: as §1

[9] = tested on: Streptococcus mutans UA159; assay: MIC assay, S. mutans; format: cell-based
Description: as §1, with “To evaluate the effects of pulmonary surfactants on activity against a community-acquired pneumonia-causing pathogen, standard MIC assays were performed with Streptococcus pneumoniae TCH8431 in media supplemented with both 15 mM CaCl1 and Survanta (beractant) at a final concentration of 5, 1, 0.5, 0.25 or 0% (volume/volume (v/v) percent).” left out

[10] = tested on: S. aureus USA300; assay: MIC assay, S. aureus USA300 (MRSA); format: cell-based, Staphylococcus aureus
Description: as §1

malacidin A
MIC ([1]; C. albicans, 15 mM CaCl2): >100 μg m1^−1
MIC ([1]; Candida albicans ATCC 1884): >100 µg/mL
Detection of resistant S. aureus after repeated exposure [2]: not detected
Membrane leakage (SYTOX green or DiBAC4) ([3]; absence of calcium supplementation): No membrane leakage
Membrane leakage (SYTOX green fluorescence) ([3]; with calcium (15 mM CaCl2)): does not cause MRSA membrane leakage
MIC (a = Viability assessed by ATP release assay) [4]: >100a μg mL^−1
IC50 ([4]; MRC5, viability, in the presence of calcium, 4.5 h): >100 μg m1^−1
IC50 [5]: >100 μg m1^−1
Loss of membrane potential (DiBAC4) [6]: no significant loss of membrane potential
MIC ([7]; S. aureus NRS 108, gentamicin, kanamycin, 15 mM CaCl2): 0.2-0.8 μg m1^−1
MIC ([7]; Staphylococcus aureus NRS108, Gentamicin, Kanamycin): 0.2 to 0.8 µg/mL
MIC ([8]; S. aureus COL, 15 mM CaCl2): 0.2-0.8 μg m1^−1
MIC ([8]; Staphylococcus aureus COL): 0.2 to 0.8 µg/mL
MIC ([9]; S. mutans, 15 mM CaCl2): 0.1-0.2 μg m1^−1
MIC ([9]; Streptococcus mutans UA159): 0.1 to 0.2 µg/mL
Dependence of antibiosis (MIC) against MRSA on calcium ([10]; MRSA USA300, CaCl2 0 to 25.0 mM): calcium-dependent
MIC ([10]; S. aureus USA300 + 10% serum, 15 mM CaCl2): 0.2-0.8 μg m1^−1
MIC ([10]; S. aureus USA300, acquired resistance β-lactams, 15 mM CaCl2): 0.2-0.8 μg m1^−1
MIC ([10]; Staphylococcus aureus + 10% Serum, USA300): 0.2 to 0.8 µg/mL
MIC ([10]; Staphylococcus aureus USA300, β-lactams (Methicillin, Oxacillin, Penicillin)): 0.2 to 0.8 µg/mL
